Experimental findings from US7659277B2, “Ubiquitin ligase inhibitors and methods related thereto” (Proteologies, Ltd., priority 2003, dated 2010) are described below.

Where two headings read alike, the source gives them in different places.

Experiment [1] concerns the target T1, POSH (Homo sapiens, UniProt Q7Z6J0).
T1 construct: GST-POSH lot NB81/p.118 3.6 mg/ml; fused on or other part: GST tag, used for detection with anti-GST XL665
T1 sequence (Q7Z6J0 1-269 limits assumed): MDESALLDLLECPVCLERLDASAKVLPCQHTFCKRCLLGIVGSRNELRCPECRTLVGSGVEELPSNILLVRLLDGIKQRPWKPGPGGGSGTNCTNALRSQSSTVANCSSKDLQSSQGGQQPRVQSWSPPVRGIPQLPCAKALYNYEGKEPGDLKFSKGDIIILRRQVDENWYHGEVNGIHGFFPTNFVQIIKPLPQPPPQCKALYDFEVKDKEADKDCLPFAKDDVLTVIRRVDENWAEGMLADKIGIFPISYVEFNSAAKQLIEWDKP
The experiment in a line: Selectivity (% A in 1 μM), ubiquitin ligase activity of POSH. Conditions: read-out: Selectivity (% A* in 1 μM) POSH. The experiment is classed as biochemical. The gist of the method:
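GST-POSH at 33 nM was preincubated 30 min at RT with compounds (1 mM stocks in DMSO, 5 μl into 100 μl) before addition to the E1/E2 enzyme mix. Dose-response runs used 44 nM to 4.44 μM compound in triplicate, with DMSO-only and no-E3 controls.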

Experiment [2] relates to HIV-1. In words: HIV maturation (budding) in virus-like particle assay, HIV-1 p24 antigen ELISA. It is filed as cell-based. Conditions: Human immunodeficiency virus 1, read-out: Budding (3 μM). From the text:
Compounds were further assessed for effects on maturation of HIV particles in a virus-like particle assay.

For experiment [3], the system named is E2 protein. The experiment is classed as biochemical. Conditions: % activity at 1 μM compound; control is related to 100% activity; HTS protocol.
Experiment [4] has as its target c-cbl (Homo sapiens, UniProt P22681). In words: Selectivity (% A in 1 μM), ubiquitin ligase activity of c-cbl. To be noted: % activity at 1 μM compound; control is related to 100% activity; HTS protocol. The experiment is classed as biochemical.
[5] abbreviates: % activity at 1 μM compound, control is related to 100% activity, HTS protocol.

For the molecule `CN(C)c1ccc(/C=C2/C(=O)NC(=O)N(C3CCCCC3)C2=O)cc1` [Compound 3], in experiment [1] (setting [5]), the remaining activity at 1 µM was found to be 47%.
Same read-out and setting: under `O=C1NC(=O)N(c2ccccc2)C(=O)/C1=C\c1ccc2c(c1)OCO2` [Compound 4] stands 48%.
Regarding `O=C(O)COc1ccc2c(c1)oc(=O)c1ccccc12` [Compound 85], the activity at 3 µM in experiment [2] stood at 59%. Moreover, the remaining activity at 1 µM in experiment [1] was found to be 26%.
Take `Cc1cc(O)c(C(=O)/C=C/c2cccc(I)c2)c(=O)o1` [Compound 87]: the activity at 3 µM in experiment [2] stood at 29%. For the same molecule, the remaining activity at 1 µM in experiment [1] turned out to be 33%.
The corresponding values for `O=C(NC(C(Cl)(Cl)Cl)S(=O)(=O)c1ccccc1)c1ccc(Cl)cc1Cl` (stereo not shown) [Compound 88] are 57% and 172%.
Take `COc1ccc(C(=O)CC2=C(O)C(=O)c3ccccc3C2=O)cc1` [Compound 89]: the “Selectivity (% A* in 1 μM) E2” value in experiment [3] is recorded as 70%. The remaining activity at 1 µM in experiment [4] came to 109%; in experiment [1] (setting [5]) it was 45%.
Consider `O=C1c2ccccc2-c2nc3nonc3nc21` [Compound 91], for which the activity at 3 µM in experiment [2] was 33%. In addition, the remaining activity at 1 µM in experiment [1] was 11%.
Consider `O=C(/C=C/c1cccnc1)c1ccc(C(=O)/C=C/c2cccnc2)cc1` [Compound 92], for which, in experiment [3], the “Selectivity (% A* in 1 μM) E2” value is on record as 125%. The remaining activity at 1 µM was determined as 111% in experiment [4] and 21% in experiment [1] (setting [5]).
The corresponding values for `Cc1ccc(C(=O)NN=C2CCC(=NNC(=O)c3ccc(C)cc3)CC2)cc1` [Compound 93] are 78%, 84% and 21%.
For `O=C(Cc1ccccc1)N1N=CCC1(O)c1ccc(F)cc1` (stereo not shown) [Compound 94] the same measures were 49%, 106% and 71%.
As to `Cc1[nH]c(=O)c(C(=O)/C=C/c2ccccc2F)c2c1CCCC2` [Compound 95], the “Selectivity (% A* in 1 μM) E2” value in experiment [3] is 100%. In addition, the remaining activity at 1 µM was found to be 136% in experiment [4] and 12% in experiment [1] (setting [5]).
`O=c1oc2ccccc2c(O)c1C(=S)Nc1ccccc1` [Compound 96]: the activity at 3 µM in experiment [2] was found to be 56%. Besides, the remaining activity at 1 µM in experiment [1] turned out to be 105%.
Turning to `O=C(Nc1cccc2c(NC(=O)C3C4CCCCC43)cccc12)C1C2CCCCC21` (stereo not shown) [Compound 97], in experiment [2], the activity at 3 µM came out at 64%. Moreover, the remaining activity at 1 µM in experiment [1] came out at 13%.
As for `COC(=O)C1=C(C(=O)OC)SC(=C2C(=S)C(C)(C)N(C(C)=O)c3cc(C)ccc32)S1` [Compound 99], in experiment [3], the “Selectivity (% A* in 1 μM) E2” value is reported as 89%. The remaining activity at 1 µM stood at 88% in experiment [4] and 36% in experiment [1] (setting [5]).
As to `COc1ccc(Nc2ccc(O)c3c2C(=O)c2ccccc2C3=O)cc1` [Compound 100], the “Selectivity (% A* in 1 μM) E2” value in experiment [3] is on record as 59%. The remaining activity at 1 µM in experiment [4] was determined as 100%; in experiment [1] (setting [5]), 99%.
The corresponding values for `COc1cc(C2Nc3ccccc3NC3=C2C(=O)CC(C)(C)C3)cc(Br)c1O` (stereo not shown) [Compound 102] are 99%, 111% and 52%.
With `Cc1cc(OC(=O)Cn2c(=O)sc3ccccc32)ccc1Cl` [Compound 103], in experiment [2], the activity at 3 µM was 69%. In addition, in experiment [1], the remaining activity at 1 µM stood at 102%.
For `O=C(NCc1ccc(Cl)cc1)C(=O)Nc1ccccc1` [Compound 104], the “Selectivity (% A* in 1 μM) E2” value in experiment [3] was 113%. Moreover, the results for the remaining activity at 1 µM in experiment [4] and in experiment [1] (setting [5]) were 140% and 111%, respectively.
